# Laboratory results: US11473089B2, “Aptamer for ADAMTS5 and use for aptamer for ADAMTS5” (RIBOMIC INC., priority 2017, dated 2022)
# Where two headings read alike, the source gives them in different places.
# Columns and labels:
# ADAMTS5 [1] = target: T1, ADAMTS5 (Homo sapiens, UniProt Q9UNA0); experiment: ADAMTS5 enzyme inhibition, aggrecan G1-IGD-G2 cleavage, SDS-PAGE detection (evaluation method 1); type: biochemical; details: for % inhibitory activity: Table 3, final concentration of the nucleic acid 30 nM; for Inhibitory activity against ADAMTS5: Table 4; for inhibition rate % (10 nM aptamer): Table 5; for inhibitory activity against ADAMTS5 (in words, compared with parent sequence): enzyme assay as in Example 1
# T1 construct: purchased R&D systems
# T1 sequence (Q9UNA0 262-930): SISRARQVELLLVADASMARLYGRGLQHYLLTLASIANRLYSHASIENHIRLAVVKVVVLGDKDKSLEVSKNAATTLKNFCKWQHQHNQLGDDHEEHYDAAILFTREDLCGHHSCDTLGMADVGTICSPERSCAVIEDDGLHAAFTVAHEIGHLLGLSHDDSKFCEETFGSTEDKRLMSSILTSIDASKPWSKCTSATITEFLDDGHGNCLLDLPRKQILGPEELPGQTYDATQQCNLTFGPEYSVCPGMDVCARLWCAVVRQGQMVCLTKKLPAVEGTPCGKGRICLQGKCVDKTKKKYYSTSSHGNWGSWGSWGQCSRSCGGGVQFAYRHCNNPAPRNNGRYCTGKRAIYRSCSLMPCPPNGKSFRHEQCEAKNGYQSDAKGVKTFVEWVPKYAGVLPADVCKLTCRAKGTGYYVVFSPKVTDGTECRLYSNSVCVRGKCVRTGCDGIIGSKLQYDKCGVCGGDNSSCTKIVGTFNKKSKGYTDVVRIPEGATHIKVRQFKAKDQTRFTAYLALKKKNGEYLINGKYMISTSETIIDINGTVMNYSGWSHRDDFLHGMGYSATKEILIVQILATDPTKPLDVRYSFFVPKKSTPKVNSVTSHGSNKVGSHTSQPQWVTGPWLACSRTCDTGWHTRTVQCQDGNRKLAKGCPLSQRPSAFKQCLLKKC
# Description: Whether an aptamer having the nucleotide sequence shown in SEQ ID NO: 1 inhibits the enzyme activity of ADAMTS5 was evaluated by the following method. As a substrate of ADAMTS5, the G1-IGD-G2 domain of aggrecan (manufactured by R&D systems) was used. ADAMTS5 specifically cleaves in between the 392nd glutamic acid and the 393rd alanine in the G1-IGD-G2 domain and produces two fragments. These fragments have faster electrophoretic mobility than uncleaved G1-IGD-G2. Thus, the enzyme activity of ADAMTS5 can be measured by quantifying the band intensity of G1-IGD-G2 by SDS-PAGE electrophoresis. The assay was performed in a solution A buffer with a reaction mixture volume of 10 μL. First, a mixture (10 μL) of a nucleic acid and ADAMTS5 was prepared and incubated at 25° C. for 15 min. To a substrate solution (5 μL) diluted with solution A was added a mixture (5 μL) of the nucleic acid and ADAMTS5 to start the enzyme reaction. The final concentration of ADAMTS5 in the reaction solution was 5 nM, and the final substrate concentration was 50 μg/mL. The reaction solution was incubated at 37° C. for 2 hr, 2 μL of solution D was added, and the mixture was heated at 95° C. for 2 min to stop the enzyme reaction of ADAMTS5. Solution D contains 0.25 M tris (pH 6.8), 10% SDS, 50% glycerol, 0.25% bromo phenolblue, and 20% 2-mercaptoethanol. The heat-treated reaction solution was electrophoresed by 7.5% SDS-PAGE and stained with SYPRO Orange (manufactured by Sigma-Aldrich). The staining was performed according to the manual of Sigma-Aldrich and detected using STORM840 manufactured by GE Healthcare. For analytical curves, uncleaved substrates 1000 ng, 400 ng, 160 ng, 64 ng, 25.6 ng, 10.24 ng, and 4.1 ng were electrophoresed, and staining and detection were performed in the same manner. The amount of uncleaved substrate in each reaction solution was quantified from the band intensity and the standard curve. The substrate cleavage efficiency of ADAMTS5 under these reaction conditions was 80-100%. The inhibition rate of the test substance was calculated using the following equation. inhibition rate (%)=(Sapt−SE)/(S0−SE)×100 wherein Sapt is the amount of an uncleaved substrate with the addition of a test substance, SE is the residual amount of an uncleaved substrate with the addition of ADAMTS5, and S0 is the residual amount of an uncleaved substrate without the addition of ADAMTS5.
# The concentration of an inhibitor necessary for inhibiting 50% of the enzyme activity (IC50) was determined. IC50 is a mean of four measurements.
# ADAMTS5 [2] = target: T1, ADAMTS5; experiment: binding activity to ADAMTS5 by surface plasmon resonance (Biacore T100); details: Table 10
# Description: The binding activity of aptamers having the nucleotide sequences shown in SEQ ID NOs: 1 and 2 to ADAMTS5 was evaluated by the surface plasmon resonance method. Biacore T100 manufactured by GE Healthcare was used for the measurement. The SA chip was used as the sensor chip, which had streptavidin immobilized thereon. About 800 RU of a 16-nucleotide Poly dT with biotin at the 5′-terminal was bound on the chip. […] ADAMTS5 for analyte was prepared at 0.1 μM, and injected at a flow rate of 30 μL/min for 60 sec. As the running buffer, solution C was used. The solution C is a mixed solution of 300 mM sodium chloride, 5.4 mM potassium chloride, 1.8 mM calcium chloride, 0.8 mM magnesium chloride, 20 mM tris (pH 7.6), and 0.05% Tween20.
# SEQ ID NO: 2 has a sequence with one base deletion from the continuous 4 G bases in the consensus sequence, and it was shown from the measurement results of the binding activity that the continuous 4 G bases in the consensus sequence are important for the activity of aptamers. Sensorgram showing the binding of an aptamer having the nucleotide sequence shown in SEQ ID NO: 1 to ADAMTS5 is presented in FIG. 2. In Table 1, “++” indicates those with the proportion of ADAMTS5 binding amount (RU value) to the amount of aptamer immobilized on the SA chip (RU value) of not less than 40%, “+” indicates those with the proportion of not less than 10% and less than 40%, and “−” indicates those with the proportion of less than 10%.
# The binding activity and enzyme inhibitory activity of aptamers having nucleotide sequences shown in SEQ ID NOs: 16-25 to ADAMTS5 were measured. The binding activity was evaluated by the surface plasmon resonance method. For the measurement, a method similar to that in Example 1 was used. The enzyme inhibitory activity was measured by a method similar to that in Example 1. […] The negative control nucleic acid refers to the nucleic acid pool used in the first round of the SELEX method. The “++” indicates those with the proportion of ADAMTS5 binding amount (RU value) to the amount of aptamer immobilized on the SA chip (RU value) of not less than 40%, and “+” indicates those with the proportion of less than 40%. […] “n.d.” means not determined.
# The binding activity of the nucleic acids shown in SEQ ID NOs: 30-45 to ADAMTS5 was measured. The binding activity was evaluated by the surface plasmon resonance method. In the Table, “++” indicates those with the proportion of ADAMTS5 binding amount (RU value) to the amount of aptamer immobilized on the SA chip (RU value) of not less than 40%, “+” indicates those with the proportion of not less than 10% and less than 40%, and “−” indicates those with the proportion of less than 10%.
# [3] = Table 9, electrophoresis detection, 10 nM nucleic acid
molecule,measurement,setting,value
"3 (GGAUUGGGGCCUCCACAGCUGCUCAGCUUGGACUAAACCAAUCC; 2'-fluoro at CU, RNA at AG, backbone not given here) [compound 3]",% inhibitory activity,ADAMTS5 [1],36.4%
same,Inhibitory activity against ADAMTS5,ADAMTS5 [1]; nucleic acid concentration 10 nM,33.9%
same,Inhibitory activity against ADAMTS5,ADAMTS5 [1]; nucleic acid concentration 30 nM,58.4%
"4 (GGCUUGGGGCCUCCACAGCUGCUCAGCUUGGACUAAACCAAGCC; 2'-fluoro at CU, RNA at AG, backbone not given here) [compound 4]",% inhibitory activity,ADAMTS5 [1],23%
"5 (GGCUUGGGGCCUCCACAGCGCUCGCUUGGACUAAACCAAGCC; 2'-fluoro at CU, RNA at AG, backbone not given here) [compound 5]",% inhibitory activity,ADAMTS5 [1],27%
"6 (GGCUUGGGGCCUCCACAGCUGUCAGCUUGGACUAAACCAAGCC; 2'-fluoro at CU, RNA at AG, backbone not given here) [compound 6]",% inhibitory activity,ADAMTS5 [1],33.7%
"7 (GGCUUGGGGCCUCCACAGCUGCUCAGCUUGGACUAACCAAGCC; 2'-fluoro at CU, RNA at AG, backbone not given here) [compound 7]",% inhibitory activity,ADAMTS5 [1],−2.3%
"8 (GGCUUGGGGCCUCACAGCUGCUCAGCUUGACUAAACCAAGCC; 2'-fluoro at CU, RNA at AG, backbone not given here) [compound 8]",% inhibitory activity,ADAMTS5 [1],−8.6%
"9 (GGAUUGGGGCCUCCACAGCGUCGCUUGGACUAAACCAAUCC; 2'-fluoro at CU, RNA at AG, backbone not given here) [compound 9]",% inhibitory activity,ADAMTS5 [1],5.9%
10 (AUUGGGGCCUCCACAGCUGCUCAGCUUGGACUAAACCAAU; 2'-F and 2'-O-methyl modifications at positions not given here) [compound 10],inhibition rate % (10 nM aptamer),ADAMTS5 [1]; 10 nM aptamer,65%
same,inhibitory activity (%) evaluation method 1,"ADAMTS5 [1]; Table 6, 10 nM aptamer",65%
11 (AUUGGGGCCUCCACAGCGCUCGCUUGGACUAAACCAAU; 2'-F and 2'-O-methyl modifications at positions not given here) [compound 11],inhibition rate % (10 nM aptamer),ADAMTS5 [1]; 10 nM aptamer,59.8%
same,inhibitory activity (%) evaluation method 1,"ADAMTS5 [1]; Table 6, 10 nM aptamer",59.8%
"12 (UUGGGGCCUCCACAGCGCUCGCUUGGACUAAACCAA; chemically modified, pattern not given here) [compound 12]",inhibition rate % (10 nM aptamer),ADAMTS5 [1]; 10 nM aptamer,71.1%
"13 (GCUGGGGCCUCCACAGCGCUCGCUUGGACUAAACCAGC; chemically modified, pattern not given here) [compound 13]",inhibitory activity (%) evaluation method 1,"ADAMTS5 [1]; Table 6, 10 nM aptamer",58.4%
same,"inhibitory activity against ADAMTS5 (in words, compared with parent sequence)",ADAMTS5 [1],does not affect the inhibitory activity
"14 (AUUGGGGCCUCCACAGCUUCGGCUUGGACUAAACCAAU; listed as RNA, chemistry not given here) [compound 14]",inhibitory activity (%) evaluation method 1,"ADAMTS5 [1]; Table 6, 10 nM aptamer",60.5%
same,"inhibitory activity against ADAMTS5 (in words, compared with parent sequence)",ADAMTS5 [1],does not affect the inhibitory activity
"26 (GGGUAUAGGGGCCUCCACAGCGUAAGCUUGGACUUAAACCAUACCC; listed as RNA, chemistry not given here) [compound 26]",inhibitory activity % 30 nM aptamer,"ADAMTS5 [1]; Table 8, 30 nM aptamer",63.5%
"27 (UAUAGGGGCCUCCACAGCGUAAGCUUGGACUUAAACCAUA; aptamer; 2'-O-methyl modifications copied from another aptamer, pattern not given here, some with 3' inverted dT) [compound 27]",IC50,"ADAMTS5 [1]; Table 8, read-out: IC50",5.9 nM
"28 (CGUAGGGGCCUCCACAGCGUAAGCUUGGACUUAAACCACG; aptamer; 2'-O-methyl modifications copied from another aptamer, pattern not given here, some with 3' inverted dT) [compound 28]",IC50,"ADAMTS5 [1]; Table 8, read-out: IC50",3.4 nM
same,inhibitory activity (%) evaluation method 1,ADAMTS5 [1]; [3],81%
"29 (CGUAGGGGCCUCCACAGCAUUCGCUUGGACACAAACCACG; aptamer; 2'-O-methyl modifications copied from another aptamer, pattern not given here, some with 3' inverted dT) [compound 29]",inhibitory activity % 10 nM aptamer,"ADAMTS5 [1]; Table 8, 10 nM aptamer",84%
same,inhibitory activity (%) evaluation method 1,ADAMTS5 [1]; [3],84%
"30 (GGGUAUUGGGGCCUCCACAAUAGAUAAAUGGACUAAACCAACUCGA; 2'-fluoro at CU, RNA at AG, backbone not given here) [compound 30]",binding activity,ADAMTS5 [2],++ (proportion of ADAMTS5 binding amount (RU value) to the amount of aptamer immobilized on the SA chip (RU value) of not less than 40%)
"31 (GGGUAUUGGGGCCUCCACAGUUGAAGCUUGGACUAAACCAAUCUCGA; aptamer; 2'-fluoro at CU, RNA at AG, backbone not given here) [compound 31]",binding activity,ADAMTS5 [2],++ (proportion of ADAMTS5 binding amount (RU value) to the amount of aptamer immobilized on the SA chip (RU value) of not less than 40%)
"32 (GGGUAUUGGGGCCUCCACAGAAAAAUCUUGGACUAAACCAAUCUCGA; aptamer; 2'-fluoro at CU, RNA at AG, backbone not given here) [compound 32]",binding activity,ADAMTS5 [2],++ (proportion of ADAMTS5 binding amount (RU value) to the amount of aptamer immobilized on the SA chip (RU value) of not less than 40%)
Cn1nc(C(F)(F)F)c(/C=C2\SC(=S)NC2=O)c1SCc1ccc(Cl)cc1 [reference compound],IC50,"ADAMTS5 [1]; positive control, read-out: IC50 value",90500 nM
